Measured values published in patent publication US5196421A, “Excitatory amino acid receptor antagonists in methods for the use thereof” (priority 1992, dated 1993).
Where “and” joins values, the source holds several entries; their conditions need not be identical. Equal values may be shown once.

What was measured:
[1] = biological target: T1, Strychnine-Insensitive [^3 H]Glycine Binding Sites, washed membranes of rat brain cortex (Rattus norvegicus, UniProt P35439); test: biochemical; settings: for inhibition at 10 µM: 1 h, read-out: [^3 H]-Glycine Binding % DSPL10 @ 10 μM, 10 μM test compound, 60 minutes on ice; for [^3 H]-Glycine Binding % DSPL10 @ 10 μM: 10 μM test compound, 60 minutes on ice
T1 construct: washed membranes of rat brain cortex; from tissue; host or cells: brain cortex membranes, male Sprague-Dawley rats (150-175 g)
Experimental: (§1) Referring to Table IV, there are shown the results obtained in testing a representative number of these compounds. In Table IV, the activity of the compounds for EAA receptor binding is indicated. Compounds were evaluated for their ability to displace [^3 H]-CGS191755, [^3 H]-glycine, [^3 H]-AMPA and [^3 H]-kainate at a screening concentration of 10 μM.
(§2) Binding assays, except for glycine binding, were performed in accordance with the methods described in Schoepp et al., J. Pharmacology and Exp. Therap., Vol. 255, No. 3, pp. 1301-1308 (1990). For all binding assays, male Sprague-Dawley rats (150-175 g) were used. Displacement of the specific binding of ^3 H]CGS19755 (10 nM) to Triton-X-treated synaptosomal membranes of rat forebrain was used to determine NMDA receptor affinity. Nonspecific binding was determined using 10 μM L-glutamate. Samples were incubated in an ice bath for 30 minutes, and bound ligand was separated from the free ligand by rapid filtration through Whatman GF/B glass fiber filters.
The compounds were examined for their ability to displace [^3 H]-glycine from washed membranes of rat brain cortex according to the methods of Shinohara et al., "Ontogeny of Strychnine-Insensitive [^3 H]Glycine Binding Sites in Rat Forebrain", Neurosci. Lett. 105 (1990) 307-311. In each assay, […] [^3 H]-glycine and 25 μg tissue were incubated with test compounds (10 μM in a total volume of 0.5 ml for 60 minutes on ice; incubations were terminated by centrifugation. Non-specific binding was defined as that remaining in the presence of 10 μM D-serine.

[2] = system: AMPA receptor ([^3 H]AMPA binding, crude membranes of rat forebrain); test: [^3 H]-AMPA displacement, EAA receptor binding; settings: 10 μM test compound, [^3 H]AMPA 5 nM, 100 mM KSCN
Experimental: as §1, §2
The binding of [^3 H]AMPA (5 nM) was conducted with crude membranes of rat forebrain in the presence of 100 mM KSCN, as described by Nielsen et al., "Studies on Receptor-Active Conformations of Excitatory Amino Acid Agonists and Antagonists," Eur. J. Med. Chem. Chim. Ther. 21:433-437 (1986). Nonspecific binding was determined with 10 μM nonlabeled AMPA.

[3] = system: kainate (KA) receptor ([^3 H]Kainate binding, washed synaptosomal membranes from the rat forebrain); test: [^3 H]-kainate displacement, EAA receptor binding; settings: 10 μM test compound, [^3 H]Kainate 5 nM, pH 7.4, 30 min
Experimental: as §1, §2
[^3 H]Kainate binding was performed using washed synaptosomal membranes from the rat forebrain, prepared as described by Simon et al., "Binding of [^3 H]Kainic Acid, an Analogue of L-Glutamate, to Brain Membranes," J. Neurochem. 26:141-147 (1976). [^3 H]Kainate (5 nM) was added to 50 mM Tris-HCl buffer (pH 7.4 at 4°) containing 200-300 μg/ml of tissue protein. Samples were incubated for 30 minutes in an ice bath and then rapidly filtered using a Brandel cell harvester and Whatman GF/C filters. Filters were washed twice with 3 ml of cold buffer. Nonspecific binding was determined using 100 μM nonlabeled kainate.

Row | SMILES | inhibition at 10 µM [1] | AMPA % DSPL @ 10 μM [2] | KA % DSPL @ 10 μM [3] | AMPA % DSPL @ 10 μM ([2]; 10 µM) | [^3 H]-Glycine Binding % DSPL10 @ 10 μM ([1]; 60 min, 10 µM) | KA % DSPL @ 10 μM ([3]; 10 µM) | [^3 H]-Glycine Binding % DSPL10 @ 10 μM [1]
1 | Cc1nnc2cnc3cc(Cl)c(Cl)cc3n12 [Compound 1, 1-methyl-7,8-dichloro-1,2,4-triazolo[4,3-a]quinoxaline] | 0% | 35.1% | 16.8% | – | – | – | –
2 | Cc1nnc2c(=O)[nH]c3cc(Cl)c(Cl)cc3n12 [Compound 2, 1-methyl-7,8-dichloro-1,2,4-triazolo[4,3-a]quinoxalin-4(5H)-one] | 18% | – | 28.0% | 78.3% and 75.1% | – | – | –
3 | CCc1nnc2cnc3cc(Cl)c(Cl)cc3n12 [Compound 3, 1-ethyl-7,8-dichloro-1,2,4-triazolo[4,3-a]quinoxaline] | 63% | 7.9% | 12.0% | – | – | – | –
4 | CCc1nnc2c(=O)[nH]c3cc(Cl)c(Cl)cc3n12 [Compound 4, 1-ethyl-7,8-dichloro-1,2,4-triazolo[4,3-a]quinoxalin-4(5H)-one] | 53% | – | 21.4% | 55.1% and 52.3% | – | – | –
5 | CCCc1nnc2cnc3cc(Cl)c(Cl)cc3n12 [Compound 5, 1-n-propyl-7,8-dichloro-1,2,4-triazolo[4,3-a]quinoxaline] | 2% | -1.6% | 3.9% | – | – | – | –
6 | CCCc1nnc2c(=O)[nH]c3cc(Cl)c(Cl)cc3n12 [Compound 6, 1-n-propyl-7,8-dichloro-1,2,4-triazolo[4,3-a]quinoxalin-4(5H)-one] | 75% | – | 32.1% | 77.1% and 85.6% | – | – | –
7 | CCCCc1nnc2cnc3cc(Cl)c(Cl)cc3n12 [Compound 7, 1-n-butyl-7,8-dichloro-1,2,4-triazolo[4,3-a]quinoxaline] | -2% | 4.2% | -6.4% | – | – | – | –
8 | CCCCc1nnc2c(=O)[nH]c3cc(Cl)c(Cl)cc3n12 [Compound 8, 1-n-butyl-7,8-dichloro-1,2,4-triazolo[4,3-a]quinoxalin-4(5H)-one] | 60% | – | 33.8% | – | – | – | –
9 | FC(F)(F)c1nnc2cnc3cc(Cl)c(Cl)cc3n12 [Compound 9, 1-trifluoromethyl-7,8-dichloro-1,2,4-triazolo[4,3-a]quinoxaline] | -6% | – | – | – | – | – | –
10 | O=c1[nH]c2cc(Cl)c(Cl)cc2n2c(C(F)(F)F)nnc12 [Compound 10, 1-trifluoromethyl-7,8-dichloro-1,2,4-triazolo [4,3-a]quinoxalin-4(5H)-one] | 40% | – | 12.5% | 56.8% and 38.5% | – | – | –
11 | Clc1cc2ncc3nnc(-c4ccccc4)n3c2cc1Cl [Compound 11, 1-phenyl-7,8-dichloro-1,2,4-triazolo[4,3-a]quinoxaline] | -3% | 1.7% | 9.1% | – | – | – | –
12 | O=c1[nH]c2cc(Cl)c(Cl)cc2n2c(-c3ccccc3)nnc12 [Compound 12, 1-Phenyl-7,8-dichloro-1,2,4-triazolo[4,3-a]quinoxalin-4(5H)-one] | -1% | 3.6% | 8.2% | – | – | – | –
13 | O=c1[nH]c2cc(Cl)c(Cl)cc2n2cnnc12 [Compound 12a, 7,8-dichloro-1,2,4-triazolo[4,3-a]quinoxalin-4(5H)-one] | – | – | – | 64.3% and 67.9% | 79% and 42% | – | –
14 | O=c1[nH]c2cc(Cl)cc(Cl)c2n2cnnc12 [Compound 14a, 7,9-dichloro-1,2,4-triazolo[4,3a]quinoxalin-4(5H)-one] | 87% | – | – | – | – | – | –
15 | Brc1ccc2ncc3nncn3c2c1 [Compound 15, 8-bromo-1,2,4-triazolo[4,3-a]quinoxaline] | -3% | 1.6% | -4.3% | – | – | – | –
16 | O=[N+]([O-])c1ccc2c(c1)ncc1nncn12 [Compound 16, 7-nitro-1,2,4-triazolo[4,3-a]quinoxaline] | -5% | 1.7% | 3.0% | – | – | – | –

Row | SMILES | inhibition at 10 µM [1] | AMPA % DSPL @ 10 μM [2] | KA % DSPL @ 10 μM [3] | AMPA % DSPL @ 10 μM ([2]; 10 µM) | [^3 H]-Glycine Binding % DSPL10 @ 10 μM ([1]; 60 min, 10 µM) | KA % DSPL @ 10 μM ([3]; 10 µM) | [^3 H]-Glycine Binding % DSPL10 @ 10 μM [1]
17 | O=c1[nH]c2cc([N+](=O)[O-])ccc2n2cnnc12 [Compound 17, 7-nitro-1,2,4-triazolo[4,3-a]quinoxalin-4(5H)-one] | 52% | – | 34.7% | 85.1% and 77.4% | – | – | –
18 | O=c1[nH]c2cc([N+](=O)[O-])c([N+](=O)[O-])cc2n2cnnc12 [Compound 18, 7,8-dinitro-1,2,4-triazolo[4,3-a]quinoxalin-4(5H)-one] | 50% | – | 15.6% | 77.4% and 55.0% | – | – | –
19 | O=c1[nH]c2ccc(Br)cc2n2nnnc12 [Compound 21, 8-bromotetrazolo[1,5-a]quinoxalin-4(5H)-one] | 6% | 10.2% | 30.8% | – | – | – | –
20 | O=c1[nH]c2ccc([N+](=O)[O-])cc2n2nnnc12 [Compound 22, 8-nitrotetrazolo[1,5-a]quinoxalin-4(5H)-one] | 0% | 0.7% | 0.5% | – | – | – | –
21 | O=[N+]([O-])c1ccc2c(c1)ncc1nnnn12 [Compound 23, 7-nitrotetrazolo[1,5-a]quinoxaline] | -1% | 1.0% | -3.8% | – | – | – | –
22 | O=c1[nH]c2cc([N+](=O)[O-])ccc2n2nnnc12 [Compound 24, 7-nitrotetrazolo[1,5-a]quinoxalin-4(5H)-one] | 2% | 38.4% | 2.8% | – | – | – | –
23 | O=c1[nH]c2cc([N+](=O)[O-])c([N+](=O)[O-])cc2n2nnnc12 [Compound 25, 7,8-dinitrotetrazolo[1,5-a]quinoxalin-4(5H)-one] | 3% | – | – | – | – | 0.4% and -2.1% | –
24 | [N-]=[N+]=Nc1cc2c(cc1F)ncc1nnnn12 [Compound 26, 7-fluoro-8-azidotetrazoloquinoxaline] | – | -1.8% | 5.5% | – | – | – | -2%
25 | [N-]=[N+]=Nc1cc2c(cc1F)[nH]c(=O)c1nnnn12 [Compound 27, 7-fluoro-8-azidotetrazoloquinoxalin-4(5H)-one] | 5% | 1.7% | 2.5% | – | – | – | –
26 | O=c1[nH]c2cc(Cl)c(Cl)cc2n2nnnc12 [Compound 27a, 7,8-dichlorotetrazolo[1,5-a]quinoxalin-4(5H)-one] | 37% | 38% | – | – | – | – | –
27 | O=c1[nH]c2ccc(Br)cc2c2ccnn12 [Compound 28, 9-bromopyrazolo[1,5-c]quinazolin-5(6H)-one] | 4% | 20.7% | 2.6% | – | – | – | –
28 | O=c1[nH]c2ccc(Cl)cc2c2ccnn12 [Compound 29, 9-Chloropyrazolo[1,5-c]quinazolin 5(6H)-one] | 5% | 23.1% | 0.3% | – | – | – | –
29 | O=c1[nH]c2c(Cl)cccc2c2ccnn12 [Compound 30, 7-Chloropyrazolo[1,5-c]quinazolin-5(6H)-one] | 0% | 14.8% | -0.4% | – | – | – | –
30 | O=c1[nH]c2cc(Cl)ccc2c2ccnn12 [Compound 31, 8-chloropyrazolo[1,5-c]quinazolin-5(6H)-one] | 42% | 46% | 11.5% | – | – | – | –
31 | O=c1[nH]c2cc(Cl)c(Cl)cc2c2ccnn12 [Compound 32, 8,9-dichloropyrazolo[1,5-c]quinazolin-5(6H)-one] | – | – | -0.1% | 4.9% and 9.3% | – | – | –
